The text below walks through data of ChEMBL document CHEMBL1153049, “Identification of aminoethyl pyrrolo dihydroisoquinolinones as novel poly(ADP-ribose) polymerase-1 inhibitors” (Bioorg Med Chem Lett, 2009).

The source made the active and inactive calls. No cut-off for these calls is given here.

Assay [1] deals with Poly [ADP-ribose] polymerase 1 (Homo sapiens, UniProt P09874).
Description: Inhibition of PARP1 in human HeLa cells by microplate scintillation counting
The target in assay [2] is Poly [ADP-ribose] polymerase 2 (Homo sapiens, UniProt Q9UGN5). As to the kind of experiment: Inhibition of human PARP2 expressed in baculovirus system.
Poly [ADP-ribose] polymerase 2, sequence (Q9UGN5 whole entry): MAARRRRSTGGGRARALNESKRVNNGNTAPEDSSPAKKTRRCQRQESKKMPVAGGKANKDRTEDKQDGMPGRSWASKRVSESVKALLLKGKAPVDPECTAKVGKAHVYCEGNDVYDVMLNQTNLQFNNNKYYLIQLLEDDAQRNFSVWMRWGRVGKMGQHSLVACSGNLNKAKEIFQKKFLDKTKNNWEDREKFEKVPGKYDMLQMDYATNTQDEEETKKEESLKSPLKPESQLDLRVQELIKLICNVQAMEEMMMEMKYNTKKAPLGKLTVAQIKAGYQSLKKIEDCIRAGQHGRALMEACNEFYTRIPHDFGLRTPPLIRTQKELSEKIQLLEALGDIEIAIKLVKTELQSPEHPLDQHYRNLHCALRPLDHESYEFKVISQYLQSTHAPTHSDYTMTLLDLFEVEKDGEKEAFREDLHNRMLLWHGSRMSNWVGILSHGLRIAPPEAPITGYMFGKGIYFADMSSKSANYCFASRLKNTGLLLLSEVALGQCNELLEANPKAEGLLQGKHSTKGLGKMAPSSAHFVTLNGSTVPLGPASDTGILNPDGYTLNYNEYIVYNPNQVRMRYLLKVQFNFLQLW
Assay [3] addresses T1, Protein mono-ADP-ribosyltransferase PARP3 (Homo sapiens) (UniProt Q9Y6F1).
T1 sequence (whole entry): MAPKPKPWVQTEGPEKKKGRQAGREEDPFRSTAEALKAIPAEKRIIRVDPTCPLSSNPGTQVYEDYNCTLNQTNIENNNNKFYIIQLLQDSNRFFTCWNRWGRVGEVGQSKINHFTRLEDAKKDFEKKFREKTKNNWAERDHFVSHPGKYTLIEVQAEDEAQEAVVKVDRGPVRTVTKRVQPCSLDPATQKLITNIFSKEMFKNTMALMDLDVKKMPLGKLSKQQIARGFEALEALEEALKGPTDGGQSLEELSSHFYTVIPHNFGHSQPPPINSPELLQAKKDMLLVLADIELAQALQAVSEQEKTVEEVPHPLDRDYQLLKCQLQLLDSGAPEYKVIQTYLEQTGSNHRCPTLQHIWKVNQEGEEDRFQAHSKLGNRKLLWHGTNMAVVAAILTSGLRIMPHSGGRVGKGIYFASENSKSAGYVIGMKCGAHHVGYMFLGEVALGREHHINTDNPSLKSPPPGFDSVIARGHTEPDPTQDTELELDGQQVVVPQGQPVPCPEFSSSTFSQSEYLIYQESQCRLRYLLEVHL
As to the kind of experiment: Inhibition of human PARP3 up to 500 nM.

Assay [4] deals with Protein mono-ADP-ribosyltransferase PARP4 (Homo sapiens) (UniProt Q9UKK3). As to the kind of experiment: Inhibition of human vPARP catalytic domain expressed in Escherichia coli up to 500 nM.
Protein mono-ADP-ribosyltransferase PARP4 (Homo sapiens), sequence (Q9UKK3 whole entry, the tested form may be a part): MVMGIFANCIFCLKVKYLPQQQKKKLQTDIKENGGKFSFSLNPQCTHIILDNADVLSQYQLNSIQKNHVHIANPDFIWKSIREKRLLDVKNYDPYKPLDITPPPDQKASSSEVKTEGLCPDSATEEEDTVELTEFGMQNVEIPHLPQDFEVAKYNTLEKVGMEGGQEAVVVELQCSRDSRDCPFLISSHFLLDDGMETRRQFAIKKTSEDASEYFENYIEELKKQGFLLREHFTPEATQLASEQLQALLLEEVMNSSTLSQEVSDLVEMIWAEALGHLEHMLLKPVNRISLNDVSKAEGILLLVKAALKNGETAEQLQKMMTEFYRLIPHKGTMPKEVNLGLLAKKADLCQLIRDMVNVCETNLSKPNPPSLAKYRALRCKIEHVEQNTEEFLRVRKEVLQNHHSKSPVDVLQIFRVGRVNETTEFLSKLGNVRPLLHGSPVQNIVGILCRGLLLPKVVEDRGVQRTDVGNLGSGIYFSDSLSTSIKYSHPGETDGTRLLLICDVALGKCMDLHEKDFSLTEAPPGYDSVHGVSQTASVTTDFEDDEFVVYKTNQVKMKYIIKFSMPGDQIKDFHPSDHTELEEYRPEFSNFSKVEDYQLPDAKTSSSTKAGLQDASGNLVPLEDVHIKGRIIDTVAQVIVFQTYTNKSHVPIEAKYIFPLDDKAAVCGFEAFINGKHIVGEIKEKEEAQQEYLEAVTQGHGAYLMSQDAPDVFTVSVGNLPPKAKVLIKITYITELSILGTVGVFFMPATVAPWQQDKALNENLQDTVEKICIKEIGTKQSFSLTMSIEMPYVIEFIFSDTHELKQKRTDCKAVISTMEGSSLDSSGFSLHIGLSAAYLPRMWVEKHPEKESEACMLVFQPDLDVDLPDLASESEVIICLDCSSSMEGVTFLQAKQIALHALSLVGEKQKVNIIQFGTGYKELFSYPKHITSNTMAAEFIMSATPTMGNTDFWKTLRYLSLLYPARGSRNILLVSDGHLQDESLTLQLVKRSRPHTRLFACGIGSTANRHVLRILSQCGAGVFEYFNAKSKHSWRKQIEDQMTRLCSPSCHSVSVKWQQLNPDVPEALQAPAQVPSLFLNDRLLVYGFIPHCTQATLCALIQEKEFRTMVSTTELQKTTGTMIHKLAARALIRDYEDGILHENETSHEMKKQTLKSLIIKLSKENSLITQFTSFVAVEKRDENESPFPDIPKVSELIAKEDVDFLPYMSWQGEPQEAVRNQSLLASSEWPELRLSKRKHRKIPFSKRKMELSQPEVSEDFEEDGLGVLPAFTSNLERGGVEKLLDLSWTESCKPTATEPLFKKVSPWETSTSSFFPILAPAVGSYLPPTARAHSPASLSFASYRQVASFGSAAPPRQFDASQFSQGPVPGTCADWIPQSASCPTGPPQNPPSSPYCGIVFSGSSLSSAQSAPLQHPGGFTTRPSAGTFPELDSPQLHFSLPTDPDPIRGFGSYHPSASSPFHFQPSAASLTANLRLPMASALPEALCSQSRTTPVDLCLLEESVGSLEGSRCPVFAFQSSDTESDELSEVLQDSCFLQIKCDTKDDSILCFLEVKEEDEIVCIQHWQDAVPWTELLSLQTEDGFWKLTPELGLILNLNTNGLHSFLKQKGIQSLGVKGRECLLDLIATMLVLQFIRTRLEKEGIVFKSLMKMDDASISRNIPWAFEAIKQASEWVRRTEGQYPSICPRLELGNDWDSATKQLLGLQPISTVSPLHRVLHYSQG
For assay [5], the target named is T2, Poly [ADP-ribose] polymerase tankyrase-1 (Homo sapiens) (UniProt O95271).
T2 sequence (whole entry): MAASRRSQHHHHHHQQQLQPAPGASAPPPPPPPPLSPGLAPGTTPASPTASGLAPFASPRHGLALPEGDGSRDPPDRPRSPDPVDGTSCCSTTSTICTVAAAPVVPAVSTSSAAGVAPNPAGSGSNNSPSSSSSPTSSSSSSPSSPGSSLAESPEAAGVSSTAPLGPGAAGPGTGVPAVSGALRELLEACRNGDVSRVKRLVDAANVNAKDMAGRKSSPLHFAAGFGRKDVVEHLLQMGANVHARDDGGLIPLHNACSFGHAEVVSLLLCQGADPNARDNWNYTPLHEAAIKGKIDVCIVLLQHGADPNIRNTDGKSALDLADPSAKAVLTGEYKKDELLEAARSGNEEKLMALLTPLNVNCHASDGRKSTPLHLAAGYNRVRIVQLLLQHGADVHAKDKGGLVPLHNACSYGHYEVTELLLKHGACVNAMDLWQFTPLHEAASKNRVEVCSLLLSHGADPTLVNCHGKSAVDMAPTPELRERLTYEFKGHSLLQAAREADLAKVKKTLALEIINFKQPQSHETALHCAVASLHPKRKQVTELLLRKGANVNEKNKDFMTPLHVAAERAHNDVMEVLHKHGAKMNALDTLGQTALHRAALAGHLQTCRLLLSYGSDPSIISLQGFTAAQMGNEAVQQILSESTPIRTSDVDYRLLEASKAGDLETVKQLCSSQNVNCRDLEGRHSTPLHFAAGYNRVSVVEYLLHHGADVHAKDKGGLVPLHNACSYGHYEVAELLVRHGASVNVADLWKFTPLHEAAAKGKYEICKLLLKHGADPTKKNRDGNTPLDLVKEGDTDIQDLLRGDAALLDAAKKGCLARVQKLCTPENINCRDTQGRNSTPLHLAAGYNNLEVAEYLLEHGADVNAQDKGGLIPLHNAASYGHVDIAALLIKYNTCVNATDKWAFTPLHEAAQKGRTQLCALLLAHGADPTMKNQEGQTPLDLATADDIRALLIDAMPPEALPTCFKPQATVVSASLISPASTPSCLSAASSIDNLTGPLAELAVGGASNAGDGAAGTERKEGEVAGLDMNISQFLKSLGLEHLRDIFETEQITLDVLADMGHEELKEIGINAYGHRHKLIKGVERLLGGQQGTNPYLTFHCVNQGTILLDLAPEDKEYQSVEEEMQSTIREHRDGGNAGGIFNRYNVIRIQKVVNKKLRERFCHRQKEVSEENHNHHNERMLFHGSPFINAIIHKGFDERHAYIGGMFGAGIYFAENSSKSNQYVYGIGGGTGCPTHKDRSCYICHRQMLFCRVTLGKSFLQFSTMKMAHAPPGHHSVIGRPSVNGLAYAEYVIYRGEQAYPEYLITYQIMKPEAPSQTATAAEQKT
Description: Inhibition of human tankyrase 1 catalytic domain expressed in Escherichia coli up to 500 nM.

Poly [ADP-ribose] polymerase 1, sequence (P09874 whole entry): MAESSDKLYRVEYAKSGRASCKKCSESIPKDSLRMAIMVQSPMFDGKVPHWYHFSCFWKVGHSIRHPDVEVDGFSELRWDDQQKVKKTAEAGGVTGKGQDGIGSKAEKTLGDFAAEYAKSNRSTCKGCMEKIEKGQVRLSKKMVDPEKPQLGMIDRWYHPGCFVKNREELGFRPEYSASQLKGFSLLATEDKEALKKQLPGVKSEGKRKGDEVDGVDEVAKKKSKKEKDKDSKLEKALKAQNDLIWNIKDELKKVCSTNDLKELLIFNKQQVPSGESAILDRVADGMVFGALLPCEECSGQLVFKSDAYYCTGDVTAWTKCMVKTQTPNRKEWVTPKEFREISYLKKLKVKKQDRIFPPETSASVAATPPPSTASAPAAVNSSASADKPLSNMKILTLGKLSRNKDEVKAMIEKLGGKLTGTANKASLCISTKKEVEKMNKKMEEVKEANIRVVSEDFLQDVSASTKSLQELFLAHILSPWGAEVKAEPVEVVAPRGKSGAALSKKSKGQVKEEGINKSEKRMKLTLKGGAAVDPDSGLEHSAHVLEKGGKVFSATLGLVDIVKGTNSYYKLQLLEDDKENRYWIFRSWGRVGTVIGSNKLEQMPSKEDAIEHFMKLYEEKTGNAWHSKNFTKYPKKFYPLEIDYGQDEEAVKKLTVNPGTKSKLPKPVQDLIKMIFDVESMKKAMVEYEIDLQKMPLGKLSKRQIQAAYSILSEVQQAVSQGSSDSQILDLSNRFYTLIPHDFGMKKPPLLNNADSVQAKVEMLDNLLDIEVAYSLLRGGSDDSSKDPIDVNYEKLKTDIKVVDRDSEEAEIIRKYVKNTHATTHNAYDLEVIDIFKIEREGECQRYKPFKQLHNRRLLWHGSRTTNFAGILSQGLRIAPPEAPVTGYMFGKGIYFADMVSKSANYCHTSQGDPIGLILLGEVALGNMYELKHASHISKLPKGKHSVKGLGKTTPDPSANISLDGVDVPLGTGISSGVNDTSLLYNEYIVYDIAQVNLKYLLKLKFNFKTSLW

The compound `O=C1NCCc2c1ccc1[nH]cc(CCNCc3cccc4cccnc34)c21` yielded an IC50 in assay [1] of over 500 nM.
In the case of `O=C1NCCc2c1ccc1[nH]cc(CCNC(=O)N3CCCNCC3)c21`, the IC50 in assay [2] came out at 17 nM; in assay [1] it was 27 nM. The inhibition entry in assay [3], in assay [4] and in assay [5] was “inactive” throughout.
Consider `O=C1NCCc2c1ccc1[nH]cc(CCNC(=O)N3CCNCC3)c21`, for which the IC50 in assay [2] worked out at 32 nM; in assay [1], 25 nM. Moreover, the inhibition result in assay [3], in assay [4] and in assay [5] was “inactive” in each case.
In the case of `Cn1cc(CNCCc2c[nH]c3ccc4c(c23)CCNC4=O)cn1`, the 50% inhibitory concentration (IC50) in assay [1] was over 500 nM.

One may read the IC50 as the concentration needed to halve the response being measured. Higher therefore signals a need for much substance.
